Test results published in patent US20120322726A1, “THERAPEUTIC AGENT FOR EATING DISORDERS” (MORINAGA MILK INDUSTRY CO., LTD., priority 2010, published 2012).

Columns and labels:
[1] = system: KK-Ay mice; assay: Test Example 3: amount of livestock feed taken by hyperphagia model mice; assay type: in vivo
Description: The object of this test was to confirm that the casein hydrolysate according to the present invention has a therapeutic effect against the hyperphagia.
The product according to the present invention: The casein hydrolysate according to the present invention, prepared by the method described in EXAMPLE 1, was diluted with the distilled water so that the concentration of the hydrolysate would be 5 mg/ml.
The precipitate fraction: Sample 2 in the Test Example 1 was diluted with the distilled water into 5 mg/ml.
Whole casein hydrolysate: The rennet casein (Fonterra Co-operative Group Limited, protein content 80%) used in EXAMPLE 1 was digested with pepsin in the same way as in EXAMPLE 1, and then, without centrifuging, diluted with the distilled water for injection so that the concentration of the hydrolysate would be 5 mg/ml.
GMP (glycol-macropeptide): A commercially available GMP (MG Nutritionals) was diluted with the distilled water for injection so that the concentration of GMP would be 5 mg/ml. […]
After pre-feeding with said livestock feed for 10 days, test animals were divided into 8 groups each including 8 animals so that they would have the nearly equal body weight and take the nearly equal amount of livestock feed. […] The amount of livestock feed taken by the animal was determined once a week. […]

[2] = system: KK-Ay mice; assay: Test Example 4: blood glucose level of hyperphagia model mice; assay type: in vivo
Excerpt: The object of this test was to confirm that the casein hydrolysate according to the present invention has an effect of decreasing the blood glucose level of the patient with hyperphagia.
The same one as in EXAMPLE 3 was used.
A commercially available livestock feed containing no protein from milk (Nihon Nosan, trade name: MR Stock) was used. As drinking water, tap water (city water) was used.
As animal model for hyperphagia, KK-Ay mice (male, 5 weeks old, CLEA Japan, Inc.) were used.
After pre-feeding with said livestock feed for 10 days, test animals were divided into 8 groups each including 8 animals so that they would have the nearly equal body weight and take the nearly equal amount of livestock feed. The animals of each group could take the livestock feed and water freely. During 5 days of one week, 0.5 ml of the sample was administered to each animal per day using a sonde. The test was performed for 5 weeks. The blood glucose level was determined once a week, using a glucose kit for self checking (Johnson & Johnson).
Relative blood glucose level is an average blood glucose level of each group when the average blood glucose level of the control group is considered 1.

[3] = 5 mg/ml, 0.5 ml per day, 5 weeks after starting of administration

Substance: κ-casein: commercially available κ-casein (Sigma)
- change of amount of livestock feed taken compared to the control [1, 3]: wasn't a significant effect
- Relative amount of livestock feed ingested 5 weeks later ([1]; 0.5 ml of 5 mg/ml sample per day by sonde, 5 days of one week, 5 weeks, control group = 1, * p < 0.05): 0.990
- change of blood glucose level compared to the control [2, 3]: wasn't a significant effect
- Relative blood glucose level 5 weeks later ([2]; Table 3 (text: relative blood glucose level), 0.5 ml of 5 mg/ml sample per day, 5 days of one week, 5 weeks, control group = 1, * p < 0.05): 0.934
